In US11660326B2, “Bacterial-binding peptides for treatment of infectious diseases and related inflammatory processes” (priority 2018, dated 2023):

Key:
[1] = test system: G+ and G− bacterial suspensions (including MDR strains); test: Bacterial agglutination assay; assay type: cell-based; details: peptide 5, 50 and 200 μg/mL; G+ and G− bacterial suspensions incl. MDR strains
Procedure: FIG. 2. Bacterial agglutination properties of CD6-derived peptides. Increasing concentrations (5, 50 and 200 μg/mL) of the indicated CD6 (PD1, PD2, and PD3), DMBT-1 (pbs1; C+) and CD5 (PD2; C-)-derived peptides were incubated for 2 h at room temperature in 96-well U-bottomed plates with alive bacterial cell suspensions (75×10^6 CFU/mL) in TTC buffer (50 mM Tris pH 7.5 plus 150 mM NaCl, 0.1% Tween 20, and 1 mM Ca^2+). Bacterial agglutination was scored and condensed by two independent observers as −, +/−, +, ++ or +++. (A) Summary of the agglutination results obtained with the indicated panel of Gram-negative (Multidrug resistant Acinetobacter baumanii clinical isolate; Enterobacter cloacae ATCC 23355; Escherichia coli ATCC 25922; Klebsiella pneumoniae ATCC 13883; […]; Pseudomonas aeruginosa ATCC 27853) and Gram-positive (Staphyloccocus aureus ATCC 25923; Methicilin-resistant Staphylococus aureus (MRSA) clinical isolate) bacterial strains. (B) Representative agglutination results obtained for the MRSA clinical isolate.
5×10^8 colony-forming units (CFU)/mL diluted in TTC buffer (50 mM Tris pH 7.5 plus 150 mM NaCl, 0.1% Tween 20, and 1 mM Ca^2+) were mixed (1:1) with different peptide concentrations (0-200 μg/mL) in 96 U-bottomed well microtiter plates (Biofil) (Bikker F J, et al., 2002, Identification of the bacteria-binding peptide domain on salivary agglutinin (gp-340/DMBT1), a member of the scavenger receptor cysteine-rich superfamily, J Biol Chem 277:32109-15). After overnight incubation at 37° C., bacterial agglutination was examined by light microscopy and scored from -(absent) to +++ (maximal) by two independent observers. […]

[2] = Dynamic light scattering (DLS), hydrodynamic size of peptides in solution; assay type: physicochemical; details: 10 μg/mL in PBS, 25° C.
Procedure: FIG. 5. Analysis of the hydrodynamic size of CD6-derived peptides in solution. The dynamic light scattering (DLS) analysis of the hydrodynamic diameter of CD6 (PD1, PD2, PD3, and Pcons) and DMBT-1/SAG (pbs1) derived peptides (10 μg/mL) in PBS is shown. The y axis represents the relative intensity of the scattered light; the x axis denotes the hydrodynamic diameter of the particles present in the solution. One representative experiment of four performed is shown (left). The numeric values obtained for each peptide are also shown (right).
The hydrodynamic diameters of peptides (10 μg/mL in PBS) were measured at 25° C. in a Zetasizer Nano S from Malvern Instruments (Worcestershire, UK) equipped with a 633 nm HeNe laser, as described (Saenz A, et al., 2010, Fluidizing effects of C-reactive protein on lung surfactant membranes: protective role of surfactant protein A, FASEB J 24:3662-73). Four scans were recorded for each sample, and samples were analyzed in triplicate.

[3] = test system: mice undergoing CLP-induced septic shock; test: Mouse survival following CLP-induced septic shock; assay type: in vivo, C57BL/6J mice; details: for effect on mice survival, in words: CLP-induced sepsis, compared to saline-treated group; for survival: single 6 mg/kg i.v. at +1 h post CLP, FIG. 7
Procedure: FIG. 7. Comparative therapeutic effects of i.v. infused CD6-derived peptides on mouse survival following Cecal Ligation and Puncture (CLP)-induced sepsis. (A, B) C57BL/6J mice were i.v. infused with saline (n=25) or single 6 mg/kg doses of unlabeled CD6- (PD1, n=8; PD2, n=16; PD3, n=15; Pcons, n=12) or DMBT1 (pbs1, n=13) derived peptides at +1 h post CLP induction. A sham group (n=3) was included. In all cases average percent survival was analyzed over time for each group and compared with the saline-treated group using the long-rank t-test (*, P<0.05; **, P<0.01; ***, P<0.001).
FIG. 8. Dose-, time- and via-dependent effects of CD6.PD3 infusion on mouse survival following CLP-induced sepsis. (A) C57BL/6 mice were i.v. infused at +1 h post CLP with saline (n=26) or single increasing doses (3 mg/kg, n=13; 6 mg/kg, n=15; and 12 mg/kg, n=8) of CD6.PD3 peptide. (B) C57BL/6 mice were i.v. infused with saline (n=4) or 6 mg/kg CD6.PD3 at different times post CLP (+1 h, n=5; +3 h, n=5; +6 h, n=6). (C) C57BL/6J mice were i.v. (n=11) or i.p. (n=9) infused with 6 mg/kg CD6.PD3 peptide or saline (n=9) at +1 h post CLP. In all cases, average percent of survival was analyzed over time and compared with the saline-treated group using a log-rank t-test (n.s., not significant; *, P<0.05. **, P<0.01; ***, P<0.001).
FIG. 10. Additive effects of combined administration of CD6.PD3 plus Imipenem/Cilastatin on mouse survival following CLP-induced sepsis. C57BL/6J mice were therapeutically infused at +1 h post CLP with saline (n=36), CD6.PD3 (6 mg/kg i.v.; n=25), Imipenem/Cilastatin (I/C, 50 mg/kg/12 h i.p.; n=9) or a combination of the two later (I/C+PD3, n=11). In all cases average percent survival was analyzed over time for each group and compared to the I/C plus CD6.PD3 group using the long-rank t-test (**, P<0.02; ***, P<0.002).
Animal procedures were approved by the Animal Experimentation Ethical Committee, University of Barcelona. High-grade mortality (≥90% mortality within the first 48-72 h) CLP-induced septic shock was induced in 8-10 week old C57BL/6J male mice (20-25 g; Charles River) as previously reported (Martinez-Florensa M, et al., 2017, Protective Effects of Human and Mouse Soluble Scavenger-Like CD6 Lymphocyte Receptor in a Lethal Model of Polymicrobial Sepsis, Antimicrob Agents Chemother 61:e01391-16).
Survival assays were analyzed by a Log-Rank χ^2 test using GraphPad Prism software. The significance of differences between experimental groups was determined by 2-tailed paired T test with 95% of confidence intervals (CI). P values were considered significant when P<0.05. Statistical analysis (mean±SEM) was performed using a 2-tailed Mann-Whitney test, with 95% of Cl.

| Sequence | bacterial agglutination [1] | hydrodynamic size, first (or single) peak [2] [nm] | hydrodynamic size, second peak [2] [nm] | effect on mice survival, in words [3] | survival [3] [%] | survival rate post CLP ([3]; 3 mg/kg i.v. at +1 h post CLP, FIG. 8A) [%] | survival, i.v. versus i.p. pathway ([3]; 6 mg/kg at +1 h post CLP, FIG. 8C) | survival rate post CLP ([3]; 6 mg/kg i.v. at +1 h post CLP, FIG. 8A) [%] | survival rate post CLP ([3]; 6 mg/kg i.v. at +1 h post CLP, FIG. 8B) [%] | survival rate post CLP ([3]; 6 mg/kg i.v. at +3 h post CLP, FIG. 8B) [%] | survival rate post CLP ([3]; 12 mg/kg i.v. at +1 h post CLP, FIG. 8A) [%] | mice survival ([3]; +1 h post CLP, CD6.PD3 6 mg/kg i.v., Imipenem/Cilastatin 50 mg/kg/12 h i.p., FIG. 10) [%] |
| --- | --- | --- | --- | --- | --- | --- | --- | --- | --- | --- | --- | --- |
| GTVEVRLEASW [CD6.PD1] | dose-dependent agglutination | 321±5 | 1484±8 | No significant effects |  |  |  |  |  |  |  |  |
| GRVEMLEHGEW [CD6.PD2] | not and lower bacterial agglutination properties | 379±5 |  |  | 12.5 |  |  |  |  |  |  |  |
| GQVEVHFRGVW (CD6.PD3) | dose-dependent agglutination | 630±3 | 5151±7 | improves the survival | 36.36 | 23.08 | No significant differences | 37.5 | 40 | 20 | 40 | 30.8 |
